According to ChEMBL document CHEMBL4673339, “Immunomodulatory Constituents of Conocephalum conicum (Snake Liverwort) and the Relationship of Isolepidozenes to Germacranes and Humulanes” (J Nat Prod, 2020):
Active and inactive are the calls of the source. The calls are words filed in the database; no cut-off is given here.

How the values were obtained:
[1] = Cytotoxicity against Wistar rat splenocytes assessed as reduction in cell viability at 100 uM after 48 hrs by MTT assay relative to control; type: tissue-based; details: splenocyte
Splenocyte [2] = assay: Immunomodulatory activity in Wistar rat splenocytes assessed as decrease in LPS-induced cell proliferation at 0.1 to 100 uM after 48 hrs by MTT assay; type: functional, cell-based; details: dose 0.1-100 µM
Splenocyte [3] = assay: Immunomodulatory activity in Wistar rat splenocytes assessed as decrease in ConA-induced cell proliferation at 0.1 to 500 uM after 48 hrs by MTT assay; type: functional, cell-based; details: dose 0.1-500 µM
[4] = Cytotoxicity against Wistar rat splenocytes assessed as cell viability at >10 uM after 24 to 48 hrs by MTT assay; type: tissue-based; details: splenocyte, time 24-48 hrs
[5] = Cytotoxicity against Wistar rat splenocytes assessed as reduction in cell viability at 100 to 500 uM after 24 hrs by MTT assay; type: tissue-based; details: splenocyte, dose 100-500 µM
Splenocyte [6] = assay: Immunomodulatory activity in Wistar rat splenocytes assessed as decrease in LPS-induced cell proliferation at 500 uM after 48 hrs by MTT assay; type: functional, cell-based
Splenocyte [7] = assay: Immunomodulatory activity in Wistar rat splenocytes assessed as decrease in LPS-induced cell proliferation at 0.1 to 10 uM after 48 hrs by MTT assay; type: functional, cell-based; details: dose 0.1-10 µM
[8] = Cytotoxicity against Wistar rat splenocytes assessed as cell viability at 100 uM after 48 hrs by MTT assay relative to control; type: tissue-based, Splenocyte; details: read-out: Activity
[9] = Cytotoxicity against Wistar rat splenocytes assessed as reduction in cell viability at 0.1 to 500 uM after 48 hrs by MTT assay; type: tissue-based; details: splenocyte, dose 0.1-500 µM
[10] = Cytotoxicity against Wistar rat splenocytes assessed as cell viability at 0.1 uM after 48 hrs by MTT assay; type: tissue-based; details: splenocyte

Structure (SMILES): C[C@@H]1C[C@H]2[C@@H]3CCC4=CC(=O)C=C[C@]4(C)[C@@]3(F)[C@@H](O)C[C@]2(C)[C@@]1(O)C(=O)CO [DEXAMETHASONE]
- Activity [1]: 65%

Structure (SMILES): C/C1=C\[C@@H]2[C@@H](CC/C(CO)=C/CC1)C2(C)C (relative stereo)
- Activity (Splenocyte [2]): inactive
- Activity (Splenocyte [3]): Active
- Activity [4]: Toxic
- Activity [5]: Toxic

Structure (SMILES): C[C@@H]1/C=C/[C@H](C(C)(C)O)CC/C(CO)=C/CC1 (relative stereo)
- Activity (Splenocyte [6]): inactive
- Activity (Splenocyte [3]): Active
- Activity (Splenocyte [7]): Active
- Activity [4]: Toxic
- Activity [5]: Toxic

Structure (SMILES): C[C@@H]1/C=C/C(C)(C)[C@H](O)CC/C(CO)=C/CC1 (relative stereo)
- Activity (Splenocyte [6]): inactive
- Activity (Splenocyte [3]): Active
- Activity (Splenocyte [7]): Active
- viability at 48 h, 100 µM [8]: 60%
- Activity [9]: Toxic
- Activity [5]: Toxic

Structure (SMILES): C[C@H]1CCC2=C(C(C)(C)O)CC(C)(C)C[C@@H]21 (relative stereo)
- Activity (Splenocyte [6]): inactive
- Activity (Splenocyte [3]): Active
- Activity (Splenocyte [7]): Active
- Activity [10]: Non-Toxic
- Activity [5]: Toxic
